{"source": "ChEMBL document CHEMBL4665653", "about": "“VU6005806/AZN-00016130, an advanced M positive allosteric modulator (PAM) profiled as a potential preclinical development candidate” (Bioorg Med Chem Lett, 2019)", "key": {"[1]": {"target": "Endothelin receptor type B (Homo sapiens) (UniProt P24530)", "sequence (P24530 whole entry)": "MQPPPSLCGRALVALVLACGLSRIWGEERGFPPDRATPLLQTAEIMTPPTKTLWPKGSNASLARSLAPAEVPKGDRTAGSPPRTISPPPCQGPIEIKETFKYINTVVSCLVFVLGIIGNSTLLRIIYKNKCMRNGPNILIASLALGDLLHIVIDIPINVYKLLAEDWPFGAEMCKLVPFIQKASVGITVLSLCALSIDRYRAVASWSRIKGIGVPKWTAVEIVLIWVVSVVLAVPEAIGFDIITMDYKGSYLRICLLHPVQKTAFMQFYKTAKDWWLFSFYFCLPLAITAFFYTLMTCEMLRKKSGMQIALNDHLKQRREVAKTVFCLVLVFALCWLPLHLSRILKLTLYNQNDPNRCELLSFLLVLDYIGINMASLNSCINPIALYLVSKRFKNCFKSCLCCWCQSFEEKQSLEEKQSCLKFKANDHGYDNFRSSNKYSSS", "experiment": "Displacement of [125I]endothelin-1 from recombinant full length human recombinant ETB receptor expressed in CHO-K1 cells assessed as residual binding level for radioligand at 10 uM measured after 120 mins by radiometric scintillation analysis relative to control", "format": "cell-based"}, "[2]": {"target": "Adenosine receptor A1 (Homo sapiens) (UniProt P30542)", "sequence (P30542 whole entry)": "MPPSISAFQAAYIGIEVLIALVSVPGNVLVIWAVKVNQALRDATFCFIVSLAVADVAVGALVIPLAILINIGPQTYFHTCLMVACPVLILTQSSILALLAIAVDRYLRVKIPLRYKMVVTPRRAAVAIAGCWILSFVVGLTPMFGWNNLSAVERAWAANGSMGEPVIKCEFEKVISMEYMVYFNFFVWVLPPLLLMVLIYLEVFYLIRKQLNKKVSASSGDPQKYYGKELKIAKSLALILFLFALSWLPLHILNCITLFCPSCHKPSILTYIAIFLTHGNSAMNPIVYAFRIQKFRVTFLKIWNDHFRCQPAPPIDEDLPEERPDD", "experiment": "Displacement of [3H]DPCPX from recombinant full length human adenosine A1 receptor expressed in CHO-K1 cells assessed as residual binding level for radioligand at 10 uM incubated for 90 mins radiometric scintillation analysis relative to control", "format": "cell-based"}, "[3]": {"target": "Cannabinoid receptor 1 (Homo sapiens) (UniProt P21554)", "sequence (P21554 whole entry)": "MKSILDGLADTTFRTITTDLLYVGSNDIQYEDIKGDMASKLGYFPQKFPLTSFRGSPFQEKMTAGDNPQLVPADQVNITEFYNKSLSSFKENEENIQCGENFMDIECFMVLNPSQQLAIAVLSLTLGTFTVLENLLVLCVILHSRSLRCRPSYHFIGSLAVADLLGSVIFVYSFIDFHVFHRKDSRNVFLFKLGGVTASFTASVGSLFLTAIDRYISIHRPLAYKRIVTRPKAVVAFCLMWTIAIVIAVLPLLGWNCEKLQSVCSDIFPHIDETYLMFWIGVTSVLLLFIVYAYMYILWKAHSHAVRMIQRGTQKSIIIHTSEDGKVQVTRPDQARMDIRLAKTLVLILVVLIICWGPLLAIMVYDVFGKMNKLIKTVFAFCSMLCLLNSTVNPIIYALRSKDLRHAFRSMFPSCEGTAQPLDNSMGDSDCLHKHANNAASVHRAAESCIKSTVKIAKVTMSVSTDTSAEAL", "experiment": "Displacement of [3H]-SR141716A from human recombinant full length Cannabinoid CB1 receptor expressed in Chem-1 cells assessed as residual binding level for radioligand at 10 uM incubated for 60 mins by radiometric scintillation analysis relative to control", "format": "cell-based"}, "[4]": {"target": "Adenosine receptor A3 (Homo sapiens) (UniProt P0DMS8)", "sequence (P0DMS8 whole entry)": "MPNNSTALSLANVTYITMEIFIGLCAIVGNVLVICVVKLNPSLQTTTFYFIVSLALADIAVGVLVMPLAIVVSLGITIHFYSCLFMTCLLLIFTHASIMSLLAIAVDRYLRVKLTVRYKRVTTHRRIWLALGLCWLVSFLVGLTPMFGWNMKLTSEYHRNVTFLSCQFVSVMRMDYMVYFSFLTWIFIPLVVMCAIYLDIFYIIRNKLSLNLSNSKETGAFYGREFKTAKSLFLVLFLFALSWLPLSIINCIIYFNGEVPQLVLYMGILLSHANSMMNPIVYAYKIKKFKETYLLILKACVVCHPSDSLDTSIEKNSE", "experiment": "Displacement of [125I]AB-MECA from recombinant full length human adenosine A3 receptor expressed in CHO-K1 cells assessed as residual binding level for radioligand at 10 uM after 60 mins by radiometric scintillation analysis relative to control", "format": "cell-based"}, "Rattus norvegicus [5]": {"organism": "Rattus norvegicus", "experiment": "Displacement of [3H]-TCP from NMDA glutamate receptor phencyclidine binding site in Wistar rat brain assessed as residual binding level for radioligand at 10 uM incubated for 45 mins by scintillation counting analysis relative to control", "format": "tissue-based"}, "[6]": {"experiment": "Half life in rat", "format": "ADME", "settings": "in vivo"}, "[7]": {"target": "Alpha-1B adrenergic receptor (Homo sapiens) (UniProt P35368)", "experiment": "Displacement of [3H]-Prazosin from human adrenergic alpha 1B receptor expressed in Chem-1 cells assessed as residual binding level for radioligand at 10 uM incubated for 60 mins by radiometric scintillation analysis relative to control", "format": "cell-based"}, "[8]": {"target": "L-type calcium channel Cav1.2, benzothiazepine binding site (Rattus norvegicus, UniProt P22002)", "experiment": "Displacement of [3H]-Diltiazem from L-type calcium channel Cav1.2 benzothiazepine binding site in Wistar rat brain membrane assessed as residual binding level for radioligand at 10 uM incubated for 180 mins by radiometric scintillation analysis relative to control", "format": "cell membranes", "settings": "probe [3H]-Diltiazem, read-out: Activity"}, "[9]": {"target": "T1, Muscarinic acetylcholine receptor M4 (Homo sapiens) (UniProt P08173)", "T1 sequence (whole entry)": "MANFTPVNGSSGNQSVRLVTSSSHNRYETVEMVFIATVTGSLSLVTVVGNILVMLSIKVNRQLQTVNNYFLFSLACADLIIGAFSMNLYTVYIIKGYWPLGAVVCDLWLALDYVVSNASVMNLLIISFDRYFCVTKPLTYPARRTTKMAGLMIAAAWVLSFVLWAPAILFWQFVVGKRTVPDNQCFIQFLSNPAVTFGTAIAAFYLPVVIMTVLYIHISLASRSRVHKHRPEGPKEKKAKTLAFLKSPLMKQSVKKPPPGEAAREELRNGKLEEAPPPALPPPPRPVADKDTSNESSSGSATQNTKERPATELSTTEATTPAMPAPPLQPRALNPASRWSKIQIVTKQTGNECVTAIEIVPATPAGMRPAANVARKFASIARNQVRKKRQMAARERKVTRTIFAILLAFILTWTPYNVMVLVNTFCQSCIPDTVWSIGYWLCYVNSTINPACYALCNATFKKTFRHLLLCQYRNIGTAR", "experiment": "Positive allosteric modulation of human M4 receptor/Gqi5 in presence of EC20 acetylcholine by calcium mobilization assay relative to acetylcholine", "format": "functional", "settings": "filed as positive allosteric modulator"}, "[10]": {"experiment": "Distribution coefficient, log D of the compound pH 7.5", "format": "physicochemical", "settings": "octanol/water"}, "Rattus norvegicus [11]": {"organism": "Rattus norvegicus", "experiment": "Displacement of [125I]-Triiodothyronine from thyroid hormone receptors in Sprague-Dawley rat liver assessed as residual binding level for radioligand at 10 uM incubated for 1080 mins by radiometric scintillation analysis relative to control", "format": "tissue-based"}, "[12]": {"target": "Sodium-dependent serotonin transporter (Homo sapiens) (UniProt P31645)", "sequence (P31645 whole entry, looked up)": "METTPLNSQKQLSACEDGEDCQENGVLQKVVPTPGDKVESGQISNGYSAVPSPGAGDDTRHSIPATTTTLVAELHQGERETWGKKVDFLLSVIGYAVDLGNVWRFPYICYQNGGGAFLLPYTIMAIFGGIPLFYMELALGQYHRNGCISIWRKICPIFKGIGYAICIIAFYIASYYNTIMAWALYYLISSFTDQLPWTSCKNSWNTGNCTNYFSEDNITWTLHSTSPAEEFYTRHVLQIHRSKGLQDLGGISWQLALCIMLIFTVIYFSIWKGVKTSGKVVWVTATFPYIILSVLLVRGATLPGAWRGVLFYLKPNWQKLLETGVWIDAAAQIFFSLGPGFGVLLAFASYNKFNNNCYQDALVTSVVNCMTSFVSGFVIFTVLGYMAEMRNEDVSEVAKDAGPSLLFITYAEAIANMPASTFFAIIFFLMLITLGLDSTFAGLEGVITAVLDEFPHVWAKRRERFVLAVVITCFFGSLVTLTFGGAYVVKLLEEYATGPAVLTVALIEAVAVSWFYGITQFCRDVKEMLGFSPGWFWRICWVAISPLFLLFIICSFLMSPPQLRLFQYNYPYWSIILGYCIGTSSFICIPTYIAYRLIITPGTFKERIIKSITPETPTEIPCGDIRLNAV", "experiment": "Displacement of [3H]paroxetine from full length recombinant human SET expressed in HEK293 cells assessed as residual binding level for radioligand at 10 uM after 60 mins by radiometric scintillation analysis relative to control", "format": "cell-based"}, "[13]": {"target": "L-type calcium channel Cav1.2, dihydropyridine binding site (Rattus norvegicus, UniProt P22002)", "experiment": "Displacement of [3H]-Nitrendipine from L-type calcium channel Cav1.2 dihydropyridine binding site in Wistar rat brain assessed as residual binding level for radioligand at 10 uM incubated for 90 mins by radiometric scintillation analysis relative to control", "format": "tissue-based", "settings": "probe [3H]-Nitrendipine, read-out: Activity"}, "Rattus norvegicus [14]": {"system": "Rattus norvegicus", "experiment": "Reversal of amphetamine-induced hyperlocomotion in rat at 0.56 mg/kg, po relative to control", "format": "functional"}, "[15]": {"target": "Alpha-1D adrenergic receptor (Homo sapiens) (UniProt P25100)", "experiment": "Displacement of [3H]-Prazosin from recombinant full length human adrenergic alpha 1D receptor assessed as residual binding level for radioligand at 10 uM incubated for 60 mins by radiometric scintillation analysis relative to control"}, "[16]": {"target": "Muscarinic acetylcholine receptor M1 (Homo sapiens, UniProt P11229)", "sequence (P11229 whole entry)": "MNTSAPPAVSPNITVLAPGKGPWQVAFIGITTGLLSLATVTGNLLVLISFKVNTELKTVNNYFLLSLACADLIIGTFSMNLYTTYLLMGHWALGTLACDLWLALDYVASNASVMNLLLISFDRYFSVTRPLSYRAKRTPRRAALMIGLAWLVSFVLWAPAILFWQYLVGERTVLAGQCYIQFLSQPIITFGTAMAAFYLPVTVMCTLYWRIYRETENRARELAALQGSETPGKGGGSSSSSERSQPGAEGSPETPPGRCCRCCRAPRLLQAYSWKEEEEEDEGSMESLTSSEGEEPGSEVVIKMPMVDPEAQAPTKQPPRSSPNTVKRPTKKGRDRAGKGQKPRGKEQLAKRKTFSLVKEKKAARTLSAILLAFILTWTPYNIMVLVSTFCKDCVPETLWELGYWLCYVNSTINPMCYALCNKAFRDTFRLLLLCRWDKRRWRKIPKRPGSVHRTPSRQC", "experiment": "Positive allosteric modulation of human M1 receptor"}, "[17]": {"target": "Muscarinic acetylcholine receptor M1 (Rattus norvegicus, UniProt P08482)", "sequence (P08482 whole entry)": "as the sequence (P11229 whole entry) above, with A5V, T254S, P309S, R320K, A337G, I413V counted along it", "experiment": "Positive allosteric modulation of rat M1 receptor"}, "[18]": {"target": "D(2) dopamine receptor (Homo sapiens) (UniProt P14416)", "experiment": "Displacement of [3H]Spiperone from full length human dopamine D2S receptor expressed in CHO cells assessed as residual binding level for radioligand at 10 uM after 120 mins by radiometric scintillation analysis relative to control", "format": "cell-based"}, "[19]": {"target": "Androgen receptor (Homo sapiens) (UniProt P10275)", "sequence (P10275 whole entry)": "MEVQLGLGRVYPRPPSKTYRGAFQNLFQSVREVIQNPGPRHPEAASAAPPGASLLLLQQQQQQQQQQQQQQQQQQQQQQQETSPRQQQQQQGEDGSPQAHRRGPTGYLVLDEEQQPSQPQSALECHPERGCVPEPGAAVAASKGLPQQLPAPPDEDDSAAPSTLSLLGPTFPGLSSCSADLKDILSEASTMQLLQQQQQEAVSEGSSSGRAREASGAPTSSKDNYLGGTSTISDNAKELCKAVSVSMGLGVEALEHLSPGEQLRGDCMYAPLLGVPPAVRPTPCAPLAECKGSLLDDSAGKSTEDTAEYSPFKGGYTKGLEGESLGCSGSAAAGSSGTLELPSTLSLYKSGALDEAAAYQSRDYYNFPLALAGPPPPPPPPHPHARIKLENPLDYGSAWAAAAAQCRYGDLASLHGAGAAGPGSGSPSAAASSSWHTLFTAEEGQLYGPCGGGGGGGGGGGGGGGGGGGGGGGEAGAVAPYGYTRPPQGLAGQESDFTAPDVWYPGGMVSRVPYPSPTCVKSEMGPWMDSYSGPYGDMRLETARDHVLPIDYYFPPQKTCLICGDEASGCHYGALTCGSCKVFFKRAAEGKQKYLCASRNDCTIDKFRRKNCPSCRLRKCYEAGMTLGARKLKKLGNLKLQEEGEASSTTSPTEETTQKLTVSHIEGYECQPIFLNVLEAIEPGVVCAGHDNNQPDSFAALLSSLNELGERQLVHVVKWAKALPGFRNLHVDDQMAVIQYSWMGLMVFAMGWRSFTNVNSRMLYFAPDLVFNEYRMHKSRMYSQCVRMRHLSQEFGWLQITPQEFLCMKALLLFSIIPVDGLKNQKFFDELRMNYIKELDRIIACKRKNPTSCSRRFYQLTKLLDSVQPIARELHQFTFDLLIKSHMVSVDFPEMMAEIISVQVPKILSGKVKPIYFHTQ", "experiment": "Displacement of [3H]methyltrienolone from androgen receptor in human LNCaP cells assessed as residual binding level for radioligand at 10 uM measured after 1200 mins radiometric scintillation analysis relative to control", "format": "cell-based"}, "[20]": {"target": "D(1A) dopamine receptor (Homo sapiens) (UniProt P21728)", "experiment": "Displacement of [3H]-SCH 23390 from recombinant full length human dopamine D1 receptor expressed in CHO cells assessed as residual binding level for radioligand at 10 uM after 120 mins by radiometric scintillation analysis relative to control", "format": "cell-based"}, "Mus musculus": {"organism": "Mus musculus", "experiment": "Displacement of [3H]-PDBu from phorbol ester receptor in ICR mouse brain assessed as residual binding level for radioligand at 10 uM incubated for 60 mins by scintillation counting analysis relative to control", "format": "tissue-based"}, "Rattus norvegicus [21]": {"organism": "Rattus norvegicus", "experiment": "Displacement of [3H]-idazoxan from imidazoline I2 receptor in Wistar rat brain assessed as residual binding level for radioligand at 10 uM incubated for 30 mins by scintillation counting analysis relative to control", "format": "tissue-based"}, "[22]": {"target": "Muscarinic acetylcholine receptor M5 (Homo sapiens, UniProt P08912)", "experiment": "Positive allosteric modulation of human M5 receptor"}, "[23]": {"target": "Muscarinic acetylcholine receptor M3 (Homo sapiens, UniProt P20309)", "sequence (P20309 whole entry, looked up)": "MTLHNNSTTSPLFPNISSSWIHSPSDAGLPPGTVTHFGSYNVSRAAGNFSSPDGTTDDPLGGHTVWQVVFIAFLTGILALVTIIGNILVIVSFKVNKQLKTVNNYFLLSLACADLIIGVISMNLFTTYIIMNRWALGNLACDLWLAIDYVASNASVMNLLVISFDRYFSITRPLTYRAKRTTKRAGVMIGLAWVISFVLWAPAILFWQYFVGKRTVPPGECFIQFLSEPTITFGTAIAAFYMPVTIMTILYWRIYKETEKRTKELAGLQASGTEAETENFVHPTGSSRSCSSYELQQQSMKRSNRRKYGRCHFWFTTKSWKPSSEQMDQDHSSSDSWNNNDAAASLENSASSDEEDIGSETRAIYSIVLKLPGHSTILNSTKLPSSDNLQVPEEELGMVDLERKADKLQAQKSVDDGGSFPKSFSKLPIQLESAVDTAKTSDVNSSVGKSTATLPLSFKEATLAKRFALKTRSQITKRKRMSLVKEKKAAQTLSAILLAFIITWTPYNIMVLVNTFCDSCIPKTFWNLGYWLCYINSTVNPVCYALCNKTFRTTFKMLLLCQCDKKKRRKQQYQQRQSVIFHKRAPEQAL", "experiment": "Displacement of [3H]N-Methylscopolamine from full length human recombinant muscarinic M3 receptor expressed in CHOK1 cells assessed as residual binding level for radioligand at 10 uM measured after 120 mins by radiometric scintillation analysis relative to control", "format": "cell-based", "settings": "CHO-K1"}, "[24]": {"target": "Alpha-1A adrenergic receptor (Homo sapiens) (UniProt P35348)", "sequence (P35348 whole entry)": "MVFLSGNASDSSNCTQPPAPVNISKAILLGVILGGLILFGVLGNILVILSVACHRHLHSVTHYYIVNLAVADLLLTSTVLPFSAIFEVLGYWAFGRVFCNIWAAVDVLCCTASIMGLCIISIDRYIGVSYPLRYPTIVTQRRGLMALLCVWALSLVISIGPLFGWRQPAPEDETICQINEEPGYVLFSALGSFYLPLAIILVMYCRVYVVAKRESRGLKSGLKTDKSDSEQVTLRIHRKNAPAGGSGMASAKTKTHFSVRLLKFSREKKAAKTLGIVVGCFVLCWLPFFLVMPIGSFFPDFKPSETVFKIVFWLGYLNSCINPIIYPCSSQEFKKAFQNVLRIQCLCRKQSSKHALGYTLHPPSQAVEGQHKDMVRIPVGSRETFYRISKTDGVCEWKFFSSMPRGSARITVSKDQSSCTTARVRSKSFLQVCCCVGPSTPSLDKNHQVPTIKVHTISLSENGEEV", "experiment": "Displacement of [3H]-Prazosin from human adrenergic alpha 1A receptor expressed in Chem-1 cells assessed as residual binding level for radioligand at 10 uM incubated for 60 mins by radiometric scintillation analysis relative to control", "format": "cell-based"}}, "data": [{"compound": "COc1nnc2sc(C(=O)NC3CN(c4ncc(C(F)(F)F)cn4)C3)c(N)c2c1C", "values": [{"measurement": "Activity", "setting": "[1]", "result": "> 50", "unit": "%"}, {"measurement": "Activity", "setting": "[2]", "result": "> 50", "unit": "%"}, {"measurement": "Activity", "setting": "[3]", "result": "> 50", "unit": "%"}, {"measurement": "Activity", "setting": "[4]", "result": "> 50", "unit": "%"}, {"measurement": "Activity", "setting": "Rattus norvegicus [5]", "result": "> 50", "unit": "%"}, {"measurement": "half-life", "setting": "[6]", "result": 2.8, "unit": "h"}, {"measurement": "Activity", "setting": "[7]", "result": "> 50", "unit": "%"}, {"measurement": "activity at 3 h, 10 µM", "setting": "[8]", "result": "> 50", "unit": "%"}, {"measurement": "%max", "setting": "[9]", "result": 71, "unit": "%"}, {"measurement": "logD", "setting": "[10]", "result": 3.73}, {"measurement": "Activity", "setting": "Rattus norvegicus [11]", "result": "> 50", "unit": "%"}, {"measurement": "Activity", "setting": "[12]", "result": "> 50", "unit": "%"}, {"measurement": "activity at 1.5 h, 10 µM", "setting": "[13]", "result": "> 50", "unit": "%"}, {"measurement": "Activity", "setting": "Rattus norvegicus [14]", "result": 44, "unit": "%"}, {"measurement": "Activity", "setting": "[15]", "result": "> 50", "unit": "%"}, {"measurement": "EC50", "setting": "[16]", "result": "> 30", "unit": "µM"}, {"measurement": "EC50", "setting": "[17]", "result": "> 30", "unit": "µM"}, {"measurement": "Activity", "setting": "[18]", "result": "> 50", "unit": "%"}, {"measurement": "Activity", "setting": "[19]", "result": "> 50", "unit": "%"}, {"measurement": "Activity", "setting": "[20]", "result": "> 50", "unit": "%"}, {"measurement": "Activity", "setting": "Mus musculus", "result": "> 50", "unit": "%"}, {"measurement": "Activity", "setting": "Rattus norvegicus [21]", "result": "> 50", "unit": "%"}, {"measurement": "EC50", "setting": "[22]", "result": "> 30", "unit": "µM"}, {"measurement": "Activity", "setting": "[23]", "result": "> 50", "unit": "%"}, {"measurement": "Activity", "setting": "[24]", "result": "> 50", "unit": "%"}]}]}
